The GI50 is the concentration at which growth is held to half of that of the control. What is called IC50 is the midpoint of a concentration-inhibition curve.

Structures are written as SMILES. Like-named read-outs stand apart in the source and are kept apart here.

Assay [1] concerns breast carcinoma cell line MCF-7. The experiment in a line: Calcein AM cytotoxicity assay, MCF-7. It is filed as cell-based, human. From the text: (§1) Absence of toxic effects against mammalian (especially human) cell lines in a wide concentration range is one of the requirements on compounds intended for use in agriculture. Because toxic compounds negatively influence metabolic processes in cells, many standard cytotoxicity assays are based on measurement of metabolisation rate of various artificial substrates. Resulting product is then quantified e.g. by means of spectrometry. The assays can be easily modified for use in 96-well plates. For evaluation of cytotoxic effect of the novel substituted 6-(alkylbenzylamino)purine derivatives of this invention, a microtiter assay based on quantification of metabolisation of Calcein AM was used. The assay is widely used in drug screening programs and in chemosensitivity testing. In live cells, Calcein AM is enzymatically hydrolysed and accumulation of resulting calcein is manifested by green fluorescence.
(§2) The cells were maintained in Nunc/Corning 80 cm^2 plastic tissue culture flasks and cultured in cell culture medium (DMEM with 5 g/l glucose, 2 mM glutamine, 100 U/ml penicillin, 100 μg/ml streptomycin, 10% fetal calf serum and sodium bicarbonate).
(§3) The cell suspensions were prepared and diluted according to the particular cell type and the expected target cell density (10^4 cells per well based on cell growth characteristics) and pippetted (80 μl) into 96-well plates. Inoculates were allowed a pre-incubation period of 24 hours at 37° C., 100% humidity and 5% CO2 for stabilisation. Tested compounds were added in total volume of 20 μl of water at time zero. Usually, test compound was evaluated at six 3-fold dilutions. In routine testing, the highest concentration tested was 100 μM, the eventual changes depended on physico-chemical characteristics of the respective compound. All drug concentrations were tested in triplicates. Incubations of cells with the test compounds lasted for 72 hours at 37° C., in 5% CO2 atmosphere and 100% humidity. At the end of incubation period Calcein AM (Molecular Probes) in PBS was added into final concentration of 1 μg/ml. After another 1 hour of incubation fluorescence (FD) was measured with the Labsystem FIA Reader Fluoroscan Ascent (UK). Growth inhibition (GI) was estimated using the following equitation: GI=(mean FDdrug exposed wells−mean FDblank)/(mean FDcontrol wells−mean FDblank)×100%.

Assay [2] relates to osteosarcoma cell line HOS. In words: Calcein AM cytotoxicity assay, HOS. The following applies: 72 hours. It is filed as cell-based, human.
Text: as §1, §2, §3

Assay [3] relates to human diploid fibroblasts BJ. In words: Calcein AM cytotoxicity assay, BJ. It is filed as cell-based. The following applies: 72 hours.
Text: as §1, §2, §3

Assay [4] relates to erytroid leukemia cell line K-562. In words: Calcein AM cytotoxicity assay, K-562. It is filed as cell-based, human.
Text: as §1, §2, §3

Assay [5] deals with melanoma cell line G-361. The experiment in a line: Calcein AM cytotoxicity assay, G-361. It is filed as cell-based, human.
Text: as §1, §2, §3

In assay [6] the test system is Human diploid fibroblasts SNF25. In words: MTT viability assay on human diploid fibroblasts. It is filed as cell-based. As to conditions: SNF25 passage 19, 72 hours, read-out: IC50 (reduction in mitochondrial activity, MTT). The method, then:
MTT is a standard colorimetric assay for measurement of proliferation and survival of the cells. Yellow MTT is reduced into violet formazan in metabolically active cells. The amount of formazan is measured by spectrometry. Human diploid fibroblasts SNF25 (passage 19) were seeded in 96-well plate (5000 cells per well). After 6 hours, the cultivation medium (DMEM containing 5 g/l glucose, 2 mM glutamin, 100 U/ml penicillin, 100 μg/ml streptomycin and 10% fetal calf serum) was removed and fresh medium containing a test compound in concentration range of 0-100 μM was added. The concentration was adjusted in cases of compounds with limited solubility. Each concentration was tested in 5 replicates. MTT was added to the cells after 72 hours into final concentration of 0.5 mg/ml. Incubation time was 3 hours. Resulting MTT was disolved in DMSO and absorbance was measured. The cytotoxic effect was estimated as IC=(Awells with compounds/Acontrol wells)×100%.

Assay [7] deals with T1, CRE1/AHK4 (Arabidopsis thaliana, UniProt Q9C5U0).
T1 construct: expressed in transfected cells; host or cells: Escherichia coli KMI001, plasmid pIN-III-AHK4
The experiment in a line: Activation of cytokinin receptor CRE1/AHK4 in E. coli KMI001 (β-galactosidase reporter). It is filed as cell-based. As to conditions: E. coli KMI001 pIN-III-AHK4, 17 h incubation; n.i. means without interaction; read-out: EC50 CRE1/AHK4 (activation of cytokinin receptor). On the procedure:
(§4) Escherichia coli strains KMI001 harbouring the plasmid pIN-III-AHK4 or pSTV28-AHK3 were grown overnight at 25° C. in M9 media enriched with 0.1% casamino acids to OD600˜1. The preculture was diluted 1:600 in 1 ml M9 medium containing 0.1% casamino acids and 1 μl stock solution of either the tested compound (10^−7 M−5×10^−5 M) or solvent control (DMSO, ethanol, methanol) were added. The cultures were further grown at 25° C. in microtiter plate, 200 μl per well. […] The cultures were centrifuged and 50 μl aliquots of the supernatant were transferred to microtiter plate containing 2 μl 50 mM 4-methyl umbelliferyl galactoside which was subsequently incubated for 1 h at 37° C. The reaction was stopped by adding 100 μl 0.2 M Na2CO3. Fluorescence was measured using a Fluoroscan Ascent (Labsystems, Finland) at the excitation and emission wavelengths of 365 and 460 nm, respectively. The OD600 of remaining culture was determined and β-galactosidase activity was calculated as nmol 4-methylumbelliferone×OD600^−1×h^−1.
(§5) The EC50 value, the compound concentration activating the receptor to 50%, was calculated from the obtained dose response curves. The compound functioning as cytokinin antagonists should not activate cytokinin signalling pathway. The values shown in Table 2 are means of three replicates and the entire test was repeated at least twice.

The target of assay [8] is T2, AHK3 (Arabidopsis thaliana, UniProt Q9C5U1).
T2 construct: expressed in transfected cells; host or cells: Escherichia coli KMI001, plasmid pSTV28-AHK3
T2 sequence (Q9C5U1 1-1036): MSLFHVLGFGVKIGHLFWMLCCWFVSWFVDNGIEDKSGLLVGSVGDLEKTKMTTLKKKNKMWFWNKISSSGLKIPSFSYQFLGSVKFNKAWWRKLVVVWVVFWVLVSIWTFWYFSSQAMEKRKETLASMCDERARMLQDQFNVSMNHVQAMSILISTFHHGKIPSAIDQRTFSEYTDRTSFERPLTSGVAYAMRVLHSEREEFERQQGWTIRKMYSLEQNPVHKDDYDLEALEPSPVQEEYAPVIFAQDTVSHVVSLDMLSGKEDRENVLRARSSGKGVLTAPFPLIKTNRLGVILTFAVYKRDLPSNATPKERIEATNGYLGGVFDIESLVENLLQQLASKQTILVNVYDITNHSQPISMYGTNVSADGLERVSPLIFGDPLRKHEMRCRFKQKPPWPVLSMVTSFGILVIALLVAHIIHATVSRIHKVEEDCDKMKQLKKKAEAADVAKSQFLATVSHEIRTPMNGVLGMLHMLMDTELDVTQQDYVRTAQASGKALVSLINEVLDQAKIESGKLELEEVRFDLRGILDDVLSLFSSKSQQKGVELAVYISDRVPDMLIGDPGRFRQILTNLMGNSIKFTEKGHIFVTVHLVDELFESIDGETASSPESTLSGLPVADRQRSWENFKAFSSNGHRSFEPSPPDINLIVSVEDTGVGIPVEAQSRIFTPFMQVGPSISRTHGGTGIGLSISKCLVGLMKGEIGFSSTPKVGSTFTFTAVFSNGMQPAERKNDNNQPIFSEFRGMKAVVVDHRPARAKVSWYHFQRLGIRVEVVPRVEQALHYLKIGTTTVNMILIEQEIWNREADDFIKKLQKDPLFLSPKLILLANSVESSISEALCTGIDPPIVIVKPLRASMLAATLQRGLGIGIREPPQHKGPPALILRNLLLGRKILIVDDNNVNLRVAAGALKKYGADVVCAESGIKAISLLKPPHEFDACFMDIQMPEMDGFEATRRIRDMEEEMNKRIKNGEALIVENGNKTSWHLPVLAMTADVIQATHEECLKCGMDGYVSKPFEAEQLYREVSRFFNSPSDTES
In words: Activation of cytokinin receptor AHK3 in E. coli KMI001 (β-galactosidase reporter). It is filed as cell-based. The following applies: E. coli KMI001 pSTV28-AHK3, 28 h incubation; n.i. means without interaction; read-out: EC50 AHK3 (activation of cytokinin receptor). The method, then: as §4, §5

For assay [9], the system named is cytokinin receptors CRE1/AHK4 and AHK3. In words: Binding assay with membranes of E. coli expressing cytokinin receptors, competition with 3HtZ. On the set-up: species or system Arabidopsis. The following applies: negative control, 1000-fold higher concentration than compound 8. On the procedure: Isolation of E. coli membranes and binding assays were carried out as previously described by Romanov et al. (Romanov et al. Analytical Biochemistry 347:129-134, 2005).

T1 sequence (Q9C5U0 whole entry): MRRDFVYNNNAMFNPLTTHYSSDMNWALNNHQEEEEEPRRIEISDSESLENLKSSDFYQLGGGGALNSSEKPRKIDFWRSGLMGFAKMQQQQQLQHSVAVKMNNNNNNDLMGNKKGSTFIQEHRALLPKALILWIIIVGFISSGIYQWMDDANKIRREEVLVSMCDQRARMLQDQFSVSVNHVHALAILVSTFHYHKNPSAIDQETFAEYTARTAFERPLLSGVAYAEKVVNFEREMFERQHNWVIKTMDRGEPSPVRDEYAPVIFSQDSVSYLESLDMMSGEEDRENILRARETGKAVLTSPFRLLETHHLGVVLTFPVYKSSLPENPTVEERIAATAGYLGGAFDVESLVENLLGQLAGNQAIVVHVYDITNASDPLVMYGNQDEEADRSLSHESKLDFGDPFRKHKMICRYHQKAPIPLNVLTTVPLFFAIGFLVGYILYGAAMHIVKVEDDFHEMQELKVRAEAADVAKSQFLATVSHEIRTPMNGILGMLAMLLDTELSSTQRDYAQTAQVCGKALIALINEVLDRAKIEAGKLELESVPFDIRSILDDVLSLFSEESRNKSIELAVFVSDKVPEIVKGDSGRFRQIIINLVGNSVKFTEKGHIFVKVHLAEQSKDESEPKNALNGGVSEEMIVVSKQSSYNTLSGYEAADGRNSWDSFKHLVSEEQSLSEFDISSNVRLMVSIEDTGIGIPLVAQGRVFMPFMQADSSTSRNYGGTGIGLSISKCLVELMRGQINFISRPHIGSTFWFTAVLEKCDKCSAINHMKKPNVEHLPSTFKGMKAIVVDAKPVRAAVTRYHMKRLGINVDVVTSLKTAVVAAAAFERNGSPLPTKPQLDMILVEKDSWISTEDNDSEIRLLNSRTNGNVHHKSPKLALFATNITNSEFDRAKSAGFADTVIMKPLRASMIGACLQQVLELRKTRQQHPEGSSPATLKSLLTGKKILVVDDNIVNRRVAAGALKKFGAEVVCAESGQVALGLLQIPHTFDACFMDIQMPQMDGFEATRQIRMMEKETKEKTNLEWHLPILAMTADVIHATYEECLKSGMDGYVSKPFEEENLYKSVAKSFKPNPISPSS

For `CC(C)=CCNc1ncnc2nc[nH]c12` [isopentenyladenine], the 50% growth inhibitory concentration (GI50) in assay [1] (72 hours, read-out: GI50 MCF7) is more than 100 µM; in assay [2], more than 100 µM; in [3], more than 100 µM; in assay [4] (72 hours), more than 100 µM; in assay [5] (72 hours), more than 100 µM. Moreover, the IC50 in assay [6] is more than 100 µM.

On to `C/C(=C\CNc1ncnc2nc[nH]c12)CO` [trans-zeatin], for which the GI50 was more than 100 µM in [1] (72 hours, read-out: GI50 MCF7); more than 100 µM in assay [2]; more than 100 µM in assay [3]; more than 100 µM in assay [4] (72 hours); more than 100 µM in assay [5] (72 hours). Moreover, the EC50 was found to be 0.9 µM in assay [7] and 2.1 µM in [8]. In assay [6], the IC50 was more than 100 µM.

Consider `Oc1cccc(CNc2ncnc3nc[nH]c23)c1` [meta-topolin], for which the concentration for 50% growth inhibition (GI50) was more than 100 µM in [1] (72 hours, read-out: GI50 MCF7); more than 100 µM in assay [2]; more than 100 µM in [3]; more than 100 µM in assay [4] (72 hours); more than 100 µM in assay [5] (72 hours). Besides, the 50% inhibitory concentration (IC50) in assay [6] is more than 100 µM.

Turning to `Nc1ncnc2nc[nH]c12` [adenine], the “effect on binding of 3HtZ” value in [9] was “not effective at all”. Moreover, the GI50 in assay [1] (Homo sapiens, MCF7, 72 hours) is more than 100 µM; in assay [2] (Homo sapiens), more than 100 µM; in [3] (Homo sapiens, Fibroblast) it was more than 100 µM; in [4] (Homo sapiens, K562, 72 hours), more than 100 µM; in assay [5] (Homo sapiens, G-361, 72 hours), more than 100 µM. Further, the IC50 in assay [6] (Homo sapiens, Fibroblast) is more than 100 µM.

Regarding `c1coc(CNc2ncnc3[nH]cnc23)c1` [kinetin], the GI50 in assay [1] (Homo sapiens, MCF7, 72 hours) is more than 100 µM; in [2] (Homo sapiens), more than 100 µM; in assay [3] (Homo sapiens, Fibroblast) it was more than 100 µM; in assay [4] (Homo sapiens, K562, 72 hours), more than 100 µM; in assay [5] (Homo sapiens, G-361, 72 hours), more than 100 µM. For the same compound, in [6] (Homo sapiens, Fibroblast), the IC50 is more than 100 µM.

As to `Oc1ccccc1CNc1ncnc2nc[nH]c12` [ortho-topolin], the GI50 in assay [1] (72 hours, read-out: GI50 MCF7) was more than 100 µM; in assay [2], more than 100 µM; in [3] it was more than 100 µM; in assay [4] (72 hours), more than 100 µM; in assay [5] (72 hours) it was more than 100 µM. Further, in [6], the IC50 was more than 100 µM.

Values taken from patent publication US20100240537A1, “Substituted 6-(alkylbenzylamino)purine derivatives for use as cytokinin receptor antagonists and preparations containing these derivatives” (priority 2007, published 2010).
